Results from paper PMC4569848 (Nature Communications, 2015).
“Also recorded” adds a separate entry of the source. No end group written: not given here. *: point of attachment. sulfate = O=S(=O)(O)*

Legend:
Format in all cases: cell-based
SSTR2 [1] = assay: Co-IP β-arrestin-1/clathrin downstream of SSTR2; conditions: HEK293, 1 μM somatostatin
Description: (§1) Figure 8 Phospho-pattern-selective mechanisms of specific arrestin functions are common for at least a subset of GPCRs. (a) The phospho-binding pattern of β-arrestin-1 determines selective arrestin functions downstream of β2AR in cells. HEK293 cells were co-transfected with Flag-β2AR and wild-type HA-β-arrestin-1 or specific phosphate-binding site mutants (R25A for site 4 and R7A for site 5), then stimulated with 10 μM isoproterenol (ISO) for 15 min. The β-arrestin-1 was immunoprecipitated by HA-antibody-conjugated agarose and the formation of the β-arrestin-1/clathrin or β-arrestin-1/SRC was detected by specific clathrin or SRC antibodies. […] (b,c) The phospho-binding pattern of β-arrestin-1 determines selective arrestin interaction with clathrin or SRC downstream of somatostatin receptor 2 (SSTR2, Fig. 4c) and cholecystokinin A receptor (CCKAR, Fig. 4d). […]
(§2) To examine the effects of β-arrestin-1 mutants on ISO, CCK-8s or somatostatin induced clathrin/β-arrestin-1 or SRC/β-arrestin-1 complex formation downstream of β2AR, CCKAR and SSTR2; HEK293 cells were co-transfected with Flag-β2AR/HA-β-arrestin-1, Flag-CCKAR/HA-β-arrestin-1 or Flag-SSTR2/HA-β-arrestin-1, respectively. […] Immune complexes were analysed by western blotting with specific antibody towards clathrin or pSRC416, respectively.Representative western blots from at least three experiments are shown in Fig. 8.

SSTR2 [2] = assay: Co-IP β-arrestin-1/SRC downstream of SSTR2; conditions: HEK293, 1 μM somatostatin
Description: as §1, §2

β2AR [3] = assay: Co-IP β-arrestin-1/SRC downstream of β2AR; conditions: HEK293, 10 μM ISO, 15 min, β-arrestin-1 R7A (site 5) vs wild type
Description: (§3) (a) The phospho-binding pattern of β-arrestin-1 determines selective arrestin functions downstream of β2AR in cells. […] The β-arrestin-1 was immunoprecipitated by HA-antibody-conjugated agarose and the formation of the β-arrestin-1/clathrin or β-arrestin-1/SRC was detected by specific clathrin or SRC antibodies. […] (a–c) Representative western blottings from at least three experiments are shown on the left and the statistics from at least three independent experiments are shown on the right. *P<0.05, **P<0.01; the effects of mutants were compared with the wild type.
(§4) To examine the effects of β-arrestin-1 mutants on ISO, CCK-8s or somatostatin induced clathrin/β-arrestin-1 or SRC/β-arrestin-1 complex formation downstream of β2AR, CCKAR and SSTR2; HEK293 cells were co-transfected with Flag-β2AR/HA-β-arrestin-1, Flag-CCKAR/HA-β-arrestin-1 or Flag-SSTR2/HA-β-arrestin-1, respectively. Different HA-β-arrestin-1 mutations were used to detect the contribution of the phosphate-binding sites of β-arrestin-1 during the arrestin/clathrin or arrestin/SRC complex formatin. […] Immune complexes were analysed by western blotting with specific antibody towards clathrin or pSRC416, respectively.Representative western blots from at least three experiments are shown in Fig. 8.

β2AR [4] = assay: Co-IP β-arrestin-1/clathrin downstream of β2AR; conditions: HEK293, 10 μM ISO, 15 min, β-arrestin-1 R25A (site 4) vs wild type
Description: as §3, §4

β2AR [5] = assay: Western blot of SRC activation (phospho-SRC 416); conditions: HEK293 cells, ISO 1, 5 and 15 min
Description: (b) A representative western blotting is shown for the effects of knockdown of specific GRKs in β2-AR-mediated proto-oncogene tyrosine-protein kinase (SRC) activation. Left panel: HEK293 cells that were transiently transfected with Flag-β2-AR were stimulated with ISO for 1, 5 and 15 min. To examine the roles of GRK2 and GRK6 in β2-AR-mediated SRC activation, siRNAs that were selective for specific GRKs were transfected into the cells. A western blot representative of at least three independent experiments is shown on the left. Right panel: western blot signals of phospho-SRC 416 (a) were quantified using densitometry and are expressed as fold change versus basal level. […] (a,b) At least three independent experiments were performed. #P<0.05, ISO-stimulated cells are compared with unstimulated cells. *P<0.05; **P<0.01; ***P<0.005; GRK siRNA-treated cells are compared with control siRNA-treated cells.
GRK2 or GRK6 expression was silenced in HEK 293 cells using a specific small interfering RNA (siRNA) duplex. […]
To examine the roles of GRK2 and GRK6 in β2-AR-mediated SRC activation, selective siRNA towards specific GRK and Flag-β2AR plasmids were co-transfected into HEK-293 cells. […] Lysate protein concentrations were determined using the Bradford protein assay. […] SRC-416 phosphorylation was detected using a specific antibody.

β2AR [6] = system: β2AR
Description: To examine the effects of β-arrestin-1 mutants on ISO-induced β2AR/β-arrestin-1 complex formation, the co-immunoprecipitation experiment was performed[61][62]. In detail, HEK293 cells were co-transfected with Flag-β2AR and β-arrestin-1-YFP mutants. Twenty-four hours after transfection, the cells were starved for 4 h and then stimulated with ISO (10 μM) for 10 min. The cell lysates were subjected to immunoprecipitation using anti-FLAG beads incubated overnight at 4 °C. Immune complexes were analysed by western blotting with specific antibodies. The associated β-arrestin 1-YFP was detected using an anti-YFP antibody.

β2AR [7] = assay: Intramolecular BRET of Luc-β-arrestin-1-YFP (arrestin conformational change); conditions: HEK293 cells, 10 μM ISO, 10 min
Description: (a) Activation of β2-AR-induced conformational changes in β-arrestin-1 as measured using intramolecular BRET. Plasmids encoding a β-arrestin-1 BRET biosensor (Luc-β-arrestin-1-YFP) and Flag-β2-AR were transiently co-transfected in HEK293 cells. After starvation, the cells were stimulated with ISO (10 μM) for 10 min. The effects of GRK phosphorylation of β2-AR on ISO-induced β-arrestin-1 conformational change were probed using siRNA-mediated GRK knockdown.
The pcDNA3.0-Flag-β2AR (Flag-β2AR), β-arrestin-1-YFP, pcDNA3.1-Luc-β-arrestin-2-YFP and pCDNA3.1-Clathrin constructs were generous gifts from Dr Lefkowitz at Duke University[21][32]. […] To monitor the β-arrestin-1 conformational change, the BRET sensor for β-arrestin-1 (pcDNA3.1-Luc-β-arrestin-1-YFP) was created by in-Fusion of the β-arrestin-1-YFP plasmid with the pcDNA3.1-Luc-β-arrestin-2-YFP construct[57][58]. […] All of the constructs and mutations were verified by DNA sequencing.
HEK 293 cells were attained from ATCC and cultured at 37 °C and 5% CO2 in DMEM containing 10% (v/v) fetal bovine serum and penicillin–streptomycin (5,000 IU l^−1). GRK2 or GRK6 expression was silenced in HEK 293 cells using a specific small interfering RNA (siRNA) duplex.

CCKAR [8] = assay: Co-IP β-arrestin-1/SRC downstream of CCKAR; conditions: HEK293, 2 μM CCK-8s, 15 min
Description: as §1, §2

CCKAR [9] = assay: Co-IP β-arrestin-1/clathrin downstream of CCKAR; conditions: HEK293, 2 μM CCK-8s
Description: as §1, §2

In the case of somatostatin, the β-arrestin-1/clathrin recruitment (SSTR2 [1]; 15 min) is reported as “promoted both clathrin and SRC recruitment for β-arrestin-1”, the “β-arrestin-1/clathrin interaction, R25A” value (SSTR2 [1]; β-arrestin-1 R25A vs wild type) is reported as “selectively disrupted β-arrestin-1/clathrin interaction” and the β-arrestin-1/SRC recruitment (SSTR2 [2]; 15 min) is reported as “promoted both clathrin and SRC recruitment for β-arrestin-1”. For the same molecule, the “β-arrestin-1/SRC complex formation, R7A” value (SSTR2 [2]; β-arrestin-1 R7A vs wild type) was “impaired the β-arrestin-1/SRC complex formation”.

CC(C)NCC(O)c1ccc(O)c(O)c1 (stereo not drawn) [ISO, isoproterenol] was tested, and the “β-arrestin-1/SRC complex formation, R7A” value (β2AR [3]) was “specifically eliminated ISO-induced β-arrestin-1/SRC association; also recorded: the ISO-induced β-arrestin-1/SRC complex formation”, the “β-arrestin-1/clathrin complex formation, R25A” value (β2AR [4]) was “selectively impaired β-arrestin-1/clathrin interaction downstream of β2AR activation; also recorded: selectively disrupted the ISO-induced β-arrestin-1/clathrin complex formation” and the “SRC activation, role of GRK2 (knockdown)” value (β2AR [5]; GRK2 siRNA) was “GRK2 is a negative regulator of β2-AR-induced SRC activation”. The “SRC activation, role of GRK6 (knockdown)” value (β2AR [5]; GRK6 siRNA) was “GRK6 is required for SRC activation downstream of β2-AR activation”, the “β2AR/β-arrestin-1 complex formation with β-arrestin-1 mutants” value (β2AR [6]) was “All of the tested β-arrestin-1 mutants bound to β2AR after ISO stimulation” and the “BRET signal of Rluc-β-arrestin-1-YFP” value (β2AR [7]; Flag-β2AR) was “significantly increased the BRET signal”. The “BRET signal of Rluc-β-arrestin-1-YFP, GRK2 knockdown” value (β2AR [7]; GRK2 siRNA) was “significantly reduced by the knockdown of either GRK2 or GRK6” and the “BRET signal of Rluc-β-arrestin-1-YFP, GRK6 knockdown” value (β2AR [7]; GRK6 siRNA) was “significantly reduced by the knockdown of either GRK2 or GRK6”.

In the case of “CCK-8s: CCKAR agonist, 2 μM (DY(sulfate)MGWMDF; ends and bridges not checked; UniProt P06307 96-103, looked up)”, the β-arrestin-1/SRC recruitment (CCKAR [8]) is reported as “only promoted β-arrestin-1/clathrin interaction”, the β-arrestin-1/clathrin interaction (CCKAR [9]; 15 min) is reported as “only promoted β-arrestin-1/clathrin interaction” and the “β-arrestin-1/clathrin interaction, R25A” value (CCKAR [9]; β-arrestin-1 R25A vs wild type) is reported as “selectively disrupted β-arrestin-1/clathrin interaction”.
